pIC50: −log10 of the molar value. [BNANC] = BNA^NC bridged nucleic acid sugar; {ThiolC6} = Thiol C6 linker; d = 2'-deoxy (DNA)
What was measured:
[1] = In vivo tolerability (clinical observations, body weight) in C57BL/6J mice; conditions: doses and dose regimen of Table A5, iv, up to 336 hrs
Procedure: During the study period, ALT levels for vehicle mice ranged from an average 47 to 61 U/L per group (n=6 animals for vehicle).
(§1) • Dose administration and in-life phase. Per group, 8 C57BL/6J male mice for treatment groups and 14 in vehicle control group, approximately 6-7 weeks at arrival and 8-9 weeks at dosing, were dosed. The compounds, formulated in PBS or PBS alone (vehicle) according to Table A5, were dosed at 5 ml/kg in the tail vain (intravenously, iv), with dose volumes corresponding to the individual bodyweights. Where applicable, trivalent GalNAc-SO1861-EMCH was co-administered at 5 ml/kg in the tail vain (iv) right after the trivalent GalNAc-ApoB conjugate. Animals were weighed weekly and clinical observations were performed 2-3 times daily within the first 48 hrs, and at least once daily thereafter until study end. • Sampling of serum, liver, and kidney tissue. […] One half of the liver and one kidney was frozen and used for tissue RNA analysis.

ApoB RNA [2] = experiment: ApoB RNA expression analysis in liver tissue of C57BL/6J mice; assay type: in vivo
Procedure: as §1
The mRNA was isolated from frozen liver tissue using TRzol® Reagent (Thermo Scientific) according to the manufacturer's instruction. Conversion into cDNA was performed using Script™ cDNA Synthesis Kit (BioRad). ApoB expression levels and levels of specific liver housekeeping genes were determined using quantitative real-time PCR assays (qRT-PCR) using iTaq™ Universal SYBR® Green Supermix (BioRad) and the Light Cycler 480 (Roche Diagnostics, Rotkreuz, Switzerland) with specific DNA primers, listed in Table A5. Analysis was done by the ΔCt method to determine ApoB expression relative to 2 liver-specific housekeeping control mRNAs. Each analysis reaction was performed in triplicate.

LDL-cholesterol = experiment: Serum LDL-cholesterol analysis in C57BL/6J mice; assay type: in vivo
Procedure: as §1
LDL-cholesterol was measured in mouse serum, using an LDL-cholesterol specific two-step AU480 assay kit, respectively, from Beckman Coulter, with a photometric measurement according to the manufacturer's instructions.

ApoB RNA [3] = experiment: ApoB RNA expression analysis in mouse primary hepatocytes; assay type: cell-based; conditions: alone
Excerpt: Cryopreserved primary mouse hepatocytes ([…] Cell Culture Technology GmbH, Germany) were thawed in hepatocyte thawing media (HTM, […] Cell Culture Technology GmbH, Germany) and washed 1× with hepatocyte wash media (HWM, […] Cell Culture Technology GmbH, Germany). Cells were re-suspended in hepatocyte plating media (HPM Cryo, […] Cell Culture Technology GmbH, Germany) at a density of approx. 0.275×10^6 cells/ml.
RNA from cells was isolated using TRI Reagent® Solution (Thermo Scientific) according to the manufacturer's instruction. Conversion into cDNA was performed using iScript™ cDNA Synthesis Kit (BioRad) using standard protocols. ApoB expression levels and levels of specific hepatocyte housekeeping genes were determined using quantitative real-time PCR assays (qRT-PCR) using iTaq™ Universal SYBR® Green Supermix (BioRad) and the Light Cycler 480 (Roche Diagnostics, Rotkreuz, Switzerland) with specific DNA primers, listed in Table A4. Analysis was done by the ΔCt method to determine ApoB expression relative to 2 hepatocyte-specific housekeeping control mRNAs. Each analysis reaction was performed in triplicate.

For “ApoB #02: murine and human sequence-compatible ApoB BNA(NC) antisense oligo 5′-GCattggtatTCA-3′ [SEQ ID NO: 12] (antisense GCATTGGTATTCA; sugars from the 5' end [BNANC]2 d8 [BNANC]3, all phosphorothioate, 5' {ThiolC6}, methylation of C not given here)”, the “tolerability (clinical observations, adverse findings)” value [1] was “well tolerated”, the “reduction of liver ApoB RNA levels compared to vehicle” value (“reduction of liver ApoB RNA levels” below) (ApoB RNA [2]; 0.1 mg/kg iv alone, 24 hrs) was “not noticeably reduced” and the “reduction of liver ApoB RNA levels” value (ApoB RNA [2]; 1 mg/kg iv alone, 24 hrs) was ~15%. For the same substance, the “reduction of liver ApoB RNA levels” value (ApoB RNA [2]; 2 mg/kg iv alone, 24 hrs) was ~21%, the “reduction of liver ApoB RNA levels” value (ApoB RNA [2]; 2 mg/kg iv alone, 72 hrs) was 39% and the “reduction of liver ApoB RNA levels” value (ApoB RNA [2]; 2 mg/kg iv alone, 336 hrs) was 30%. For the same substance, the “reduction of serum LDL-C compared to vehicle” value (LDL-cholesterol; 0.1 mg/kg iv alone, 24 hrs) was “not noticeably reduced”, the “reduction of serum LDL-C compared to vehicle” value (LDL-cholesterol; 1 mg/kg iv alone, 24 hrs) was “not noticeably reduced” and the “reduction of serum LDL-C compared to vehicle” value (LDL-cholesterol; 2 mg/kg iv alone, 24 hrs) was “not noticeably reduced”. For the same substance, the “reduction of serum LDL-C compared to vehicle” value (LDL-cholesterol; 2 mg/kg iv alone, 72 hrs) was 50%, the “reduction of serum LDL-C” value (LDL-cholesterol; 2 mg/kg iv alone, 336 hrs) was 40% and the pIC50 (ApoB RNA [3]; 72 hrs, read-out: IC50 ApoB RNA down-modulation) was 7.70. The “fold less potent in ApoB RNA down-modulation than (GalNAc)3-ApoB #02 combined with SO1861-EMCH or (GalNAc)3-SO1861” value (ApoB RNA [3]) was 100-667 fold.

— patent US20230263897A1, “CONJUGATE OF GALNAC AND SAPONIN, […] COMPOSITION COMPRISING SAID CONJUGATE AND A GALNAC-OLIGO[…]” (SAPREME TECHNOLOGIES B.V., priority 2020, published 2023)
